Experimental data reported in patent US11583529B2, “Treatment of inflammatory disorders” (Aldeyra Therapeutics, Inc., priority 2017, dated 2023).

Tested on: dextran sulfate sodium (DSS)-induced acute ulcerative colitis (UC)
Test: 7-Day DSS-induced acute ulcerative colitis model
Assay type: in vivo, female Swiss Webster mice
[1] = 100 mg/kg IP QD, Days 0 through 6, vs IP vehicle
[2] = 200 mg/kg PO BID, Days 0 through 6, vs PO vehicle
[3] = 200 mg/kg PO BID, Days −3 through 6, vs PO vehicle

Structure (SMILES): CC(C)(O)c1nc2ccccc2cc1N [Compound I-6]
- Colon lengths, increase in the direction of normal [1]: 56%
- Colon weight-to-length ratios, reduction in the direction of normal [1]: 35%
- DAI score of occult/gross blood in stool, AUC [1]: significantly lower
- DAI score of stool consistency, area under the curve (AUC) [1]: significantly lower
- DAI summed scores, AUC [1]: significantly lower
- full colon PMN percentages, reduction [1]: 53%
- full colon edema, reduction [1]: 53%
- full colon erosion, reduction [1]: 91%
- full colon gland loss, reduction [1]: 82%
- full colon inflammation, reduction [1]: 56%
- full colon lymphoid aggregate counts, reduction [1]: 113%
- full colon neutrophil scores, reduction [1]: 73%
- full colon summed scores, reduction [1]: 68%
- proximal colon gland loss, reduction [1]: 57%
- proximal colon inflammation, reduction [1]: 32%
- proximal colon lymphoid aggregate counts, reduction [1]: 107%
- proximal colon summed scores, reduction [1]: 36%
- Body weight loss (100 mg/kg IP QD, Days 0 through 6, vs IP vehicle (SBECD)): significantly inhibited
- Body weights (200 mg/kg PO BID (Groups 5, 6, 7, 8, 9, and 10), vs PO vehicle): did not differ significantly
- full colon edema, reduction [2]: 44%
- proximal colon edema, reduction [2]: 48%
- proximal colon inflammation, reduction [2]: 36%
- full colon edema, reduction [3]: 58%
- proximal colon edema, reduction [3]: 41%
- proximal colon erosion, reduction [3]: 75%
- DAI stool consistency scores (Day 2, 100 mg/kg IP QD, Days 0 through 6, vs IP vehicle): significantly reduced
- DAI summed scores (Day 6, 100 mg/kg IP QD, Days 0 through 6, vs IP vehicle): significantly reduced
- DAI occult/gross blood in stool scores (Days 4 and 6, 100 mg/kg IP QD, Days 0 through 6, vs IP vehicle): significantly reduced
